In PubChem BioAssay (NCI):
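Results reflect a 48-hour exposure of cells in 96-well plates to compound at five concentrations. GI50 is the concentration that inhibits growth by half. TGI: total growth inhibition.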

How the values were obtained:
Experiment in all cases: NCI-60 cell line screen, 48 h
NCI-H226 lung = system: NCI-H226 lung
HOP-62 NSCLC = system: HOP-62 NSCLC
MCF7 breast = system: MCF7 breast
MDA-MB-231 breast = system: MDA-MB-231 breast
MOLT-4 leukemia = system: MOLT-4 leukemia
NCI-H522 lung = system: NCI-H522 lung
A549 NSCLC = system: A549 NSCLC
M14 melanoma = system: M14 melanoma
SNB-19 CNS = system: SNB-19 CNS
SW-620 colon = system: SW-620 colon
T-47D breast = system: T-47D breast
A498 renal = system: A498 renal
BT-549 breast = system: BT-549 breast
COLO 205 colon = system: COLO 205 colon
NCI-H23 lung = system: NCI-H23 lung
RPMI-8226 leukemia = system: RPMI-8226 leukemia
HOP-92 NSCLC = system: HOP-92 NSCLC
UACC-62 melanoma = system: UACC-62 melanoma
OVCAR-5 ovarian = system: OVCAR-5 ovarian
UACC-257 melanoma = system: UACC-257 melanoma
SK-MEL-2 melanoma = system: SK-MEL-2 melanoma
MALME-3M melanoma = system: MALME-3M melanoma
HCT-15 colon = system: HCT-15 colon
OVCAR-4 ovarian = system: OVCAR-4 ovarian
SR leukemia = system: SR leukemia
NCI-H460 lung = system: NCI-H460 lung
SF-539 CNS = system: SF-539 CNS
HCC-2998 colon = system: HCC-2998 colon

O=c1oc2ccc(-c3ccc(F)cc3F)cc2c(=O)n1-c1cccc(C(F)(F)F)c1
GI50 (NCI-H226 lung): 1510 nM
TGI (NCI-H226 lung): 5580 nM
GI50 (HOP-62 NSCLC): 1480 nM
TGI (HOP-62 NSCLC): 6330 nM
GI50 (MCF7 breast): 1290 nM
TGI (MCF7 breast): 4790 nM
GI50 (MDA-MB-231 breast): 1210 nM
TGI (MDA-MB-231 breast): 2970 nM
GI50 (MOLT-4 leukemia): 1550 nM
TGI (MOLT-4 leukemia): 6890 nM
GI50 (NCI-H522 lung): 1420 nM
TGI (NCI-H522 lung): 6020 nM
GI50 (A549 NSCLC): 1680 nM
TGI (A549 NSCLC): > 50000 nM
GI50 (M14 melanoma): 1710 nM
TGI (M14 melanoma): 8410 nM
GI50 (SNB-19 CNS): 1790 nM
TGI (SNB-19 CNS): > 50000 nM
GI50 (SW-620 colon): 1610 nM
TGI (SW-620 colon): 6470 nM
GI50 (T-47D breast): 1300 nM
TGI (T-47D breast): 4130 nM
GI50 (A498 renal): 902 nM
TGI (A498 renal): 2380 nM
GI50 (BT-549 breast): 1660 nM
TGI (BT-549 breast): 6770 nM
GI50 (COLO 205 colon): 5910 nM
TGI (COLO 205 colon): 14400 nM
GI50 (NCI-H23 lung): 1130 nM
TGI (NCI-H23 lung): 3730 nM
GI50 (RPMI-8226 leukemia): 1030 nM
TGI (RPMI-8226 leukemia): 3130 nM
GI50 (HOP-92 NSCLC): 952 nM
TGI (HOP-92 NSCLC): 2780 nM
GI50 (UACC-62 melanoma): 1200 nM
TGI (UACC-62 melanoma): 3650 nM
GI50 (OVCAR-5 ovarian): 1550 nM
TGI (OVCAR-5 ovarian): > 50000 nM
GI50 (UACC-257 melanoma): 1210 nM
TGI (UACC-257 melanoma): 3870 nM
GI50 (SK-MEL-2 melanoma): 1210 nM
TGI (SK-MEL-2 melanoma): 3370 nM
GI50 (MALME-3M melanoma): 1160 nM
TGI (MALME-3M melanoma): 3260 nM
GI50 (HCT-15 colon): 1530 nM
TGI (HCT-15 colon): 5600 nM
GI50 (OVCAR-4 ovarian): 1610 nM
TGI (OVCAR-4 ovarian): 40100 nM
GI50 (SR leukemia): 1640 nM
TGI (SR leukemia): > 50000 nM
GI50 (NCI-H460 lung): 1530 nM
TGI (NCI-H460 lung): 5770 nM
GI50 (SF-539 CNS): 1590 nM
TGI (SF-539 CNS): 6450 nM
GI50 (HCC-2998 colon): 1600 nM
